Assay results taken from the supplement of paper PMC11061612.

Tests used:
[1] = tested on: 8305C (Thyroid Gland Carcinoma); test: Bliss excess, mean over the matrix (fraction); higher = more synergy
Summary of the method: (§1)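 Cell lines in DMEM/F12 or RPMI with 10% FBS were plated in 1536-well plates, held 24 hours at 37°C, 5% CO2, then given two-drug dose matrices for 72 hours (DMSO typically 0.2%). Viability was read by CellTiter-Glo 2.0 luminescence and scaled as inhibition from 0 (vehicle wells) to 1 (blank wells). Combination Emax is the second-highest inhibition in the matrix; Bliss excess is observed combination effect minus expected EA + EB − EA·EB, EA and EB being single-agent effects.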

[2] = tested on: HDLM-2 (Hodgkin's Lymphoma); test: as above
Summary of the method: as §1

[3] = tested on: Hs-633T (Other Solid Carcinomas); test: as above
Summary of the method: as §1

[4] = tested on: LU-139 (Small Cell Lung Carcinoma); test: as above
Summary of the method: as §1

[5] = tested on: LoVo (Colorectal Carcinoma); test: as above
Summary of the method: as §1

NB14 (Neuroblastoma) = test: as above
Summary of the method: as §1

NCI-H28 (Mesothelioma) = test: as above
Summary of the method: as §1

[6] = tested on: RKO (Colorectal Carcinoma); test: as above
Summary of the method: as §1

[7] = tested on: SK-OV-3 (Ovarian Carcinoma); test: as above
Summary of the method: as §1

[8] = tested on: SUP-T1 (T-Lymphoblastic Leukemia); test: as above
Summary of the method: as §1

[9] = tested on: EN (Endometrial Carcinoma); test: combination Emax (second highest fraction inhibited in the dose matrix, 72 h); higher = more inhibition; extreme values may be limits of the assay
Summary of the method: as §1

HMV-II (Melanoma) = test: as above
Summary of the method: as §1

[10] = tested on: HO-1-u-1 (Oral Cavity Carcinoma); test: as above
Summary of the method: as §1

[11] = tested on: LU-139 (Small Cell Lung Carcinoma); test: as above
Summary of the method: as §1

Mewo (Melanoma) = test: as above
Summary of the method: as §1

NCI-H2461 (Mesothelioma) = test: as above
Summary of the method: as §1

[12] = tested on: RKO (Colorectal Carcinoma); test: as above
Summary of the method: as §1

SH-4 (Melanoma) = test: as above
Summary of the method: as §1

[13] = tested on: SU-DHL-6 (B-Cell Non-Hodgkin's Lymphoma); test: as above
Summary of the method: as §1

[14] = tested on: SW1271 (Small Cell Lung Carcinoma); test: as above
Summary of the method: as §1
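Wherever Bliss excess, mean over the matrix is given: after 72 h of two-drug dosing.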

Compound	Bliss excess [1]	Bliss excess [2]	Bliss excess [3]	Bliss excess [4]	Bliss excess [5]	Bliss excess (NB14 (Neuroblastoma))	Bliss excess (NCI-H28 (Mesothelioma))	Bliss excess [6]	Bliss excess [7]	Bliss excess [8]	combination Emax [9]	combination Emax (HMV-II (Melanoma))	combination Emax [10]	combination Emax [11]	combination Emax (Mewo (Melanoma))	combination Emax (NCI-H2461 (Mesothelioma))	combination Emax [12]	combination Emax (SH-4 (Melanoma))	combination Emax [13]	combination Emax [14]
C[C@@H](Nc1cc(F)cc(F)c1)c1cc(C(=O)N(C)C)cc2c(=O)cc(N3CCOCC3)oc12 [AZD8186] + CC(=O)c1c(C)c2cnc(Nc3ccc(N4CCNCC4)cn3)nc2n(C2CCCC2)c1=O [Palbociclib] (first compound max 10 µM, 7x7, partner max 10 µM)	0.0133	0.0121	0.05	-0.025	-0.0314	0.075	-0.0333	0.0559	-0.0454	-0.0616	0.387	0.469	0.378	0.115	0.449	0.447	0.514	0.233	0.999	0.411
C[C@@H](Oc1cc(-c2cnn(C3CCNCC3)c2)cnc1N)c1c(Cl)ccc(F)c1Cl [Crizotinib] + CC1=C(C(=CC=C1)Cl)NC(=O)C2=CN=C(S2)NC3=CC(=NC(=N3)C)N4CCN(CC4)CCO [Dasatinib] (first compound max 10 µM, 7x7, partner max 2 µM)	0.0122	-0.0228	0.0646	-0.0489	-0.121	-0.0123	0.0073	0.0106	0.0301	-0.009	0.389	0.768	0.863	0.688	0.481	0.594	0.771	0.556	1	0.714
C[C@@H](Oc1cc(-c2cnn(C3CCNCC3)c2)cnc1N)c1c(Cl)ccc(F)c1Cl [Crizotinib] + Cn1cnc2c(F)c(Nc3ccc(Br)cc3Cl)c(C(=O)NOCCO)cc21 [Selumetinib] (first compound max 10 µM, 7x7, partner max 10 µM)	0.0017	-0.0399	0.0381	-0.0615	-0.0546	0.0218	-0.0004	0.122	-0.0479	-0.0501	0.401	0.934	0.639	0.684	0.541	0.56	0.982	0.91	1	0.896
O=C(c1cc(Cc2n[nH]c(=O)c3ccccc23)ccc1F)N1CCN(C(=O)C2CC2)CC1 [Olaparib] + CC1(C)CCC(CN2CCN(c3ccc(C(=O)NS(=O)(=O)c4ccc(NCC5CCOCC5)c([N+](=O)[O-])c4)c(Oc4cnc5[nH]ccc5c4)c3)CC2)=C(c2ccc(Cl)cc2)C1 [Venetoclax] (first compound max 10 µM, 7x7, partner max 1 µM)	-0.0213	0.0921	-0.0018	0.0408	-0.038	0.0052	-0.0273	-0.0151	-0.0472	-0.0572	0.29	0.129	0.117	0.655	0.0337	0.203	0.191	0.148	0.719	0.201
O=C(c1cc(Cc2n[nH]c(=O)c3ccccc23)ccc1F)N1CCN(C(=O)C2CC2)CC1 [Olaparib] + CN(CC[C@H](CSC1=CC=CC=C1)NC2=C(C=C(C=C2)S(=O)(=O)NC(=O)C3=CC=C(C=C3)N4CCC(CC4)[C@H](C5=CC=CC=C5C6=CC=C(C=C6)Cl)O)S(=O)(=O)C(F)(F)F)CCO [AZD4320] (first compound max 10 µM, 7x7, partner max 1 µM)	-0.0062	-0.0141	0.0017	0.0154	-0.0225	0.0027	-0.0353	-0.0252	-0.0672	-0.0301	0.297	0.0872	0.29	0.958	0.0936	0.17	0.11	0.162	0.919	0.21
